Usually CC50 stands for the concentration at which the toxic effect on the cells reaches its halfway point. A word on the EC50: it is the midpoint of the concentration-response curve. A low value points to greater potency. A word on the IC50: it is the point on the concentration scale where inhibition reaches its midpoint. Read a high IC50 as weaker potency in that assay. As usually defined, the Papp A→B is the apparent permeability from the apical to the basolateral side of a cell layer. Usually bioavailability stands for dose-corrected exposure relative to a reference, in per cent. For orientation: half-life means the time in which the quantity being followed falls by half. The Papp B→A is how fast a substance crosses the layer from the basolateral side.

The results in this text go back to ChEMBL document CHEMBL1148726, “Allosteric inhibitors of hepatitis C polymerase: discovery of potent and orally bioavailable carbon-linked dihydropyrones” (J Med Chem, 2007).

A short description of series [1]: Cytotoxic against Huh7 cells. Conditions: human. The format is cell-based, Huh-7.
A further series relates to Hepatitis C virus. Briefly: Antiviral activity against Hepatitis C virus infected Huh7 cells. The format is functional, organism-based, Hepacivirus hominis, Huh-7.
Series [2] can be described thus: Inhibition of HCV 1b NS5B delta21 RNA dependent RNA polymerase by enzymatic assay. On the set-up: species or system Hepacivirus hominis.
Series [3] can be described thus: Permeability from apical to basolateral side of the Caco-2 cell membrane. Type of series: ADME, cell-based. The note with it: human. A general note: Caco-2 monolayers are a common model of the intestinal barrier.
Series [4] in a line: Ratio of EC50 for HCV in Huh7 cells to IC50 for HCV NS5 B delta 21 polymerase. The format is functional, Hepacivirus hominis, Huh-7.
Series [5] in a line: Volume of distribution in rat at 10 mg/kg, po or 2 mg/kg, iv. Type of series: ADME, organism-based. The note with it: in vivo, read-out: Vdss.
Series [6] can be described thus: Total plasma clearance in rat at 10 mg/kg, po or 2 mg/kg, iv. Type of series: ADME, organism-based.
Series [7] in a line: (§1) Bioavailability in rat at 10 mg/kg, po. Type of series: ADME, organism-based. The note with it: in vivo.
The nature of series [8]: Fraction absorption in rat at 10 mg/kg, po. The format is ADME, organism-based. On the set-up: dose 10 mg/kg, route oral. The note with it: in vivo.
Series [9] in a line: Half life in rat at 10 mg/kg, po or 2 mg/kg, iv. The note with it: in vivo. Type of series: ADME, organism-based.
A short description of series [10]: Permeability from basolateral to apical side of the Caco-2 cell membrane. Conditions: human. The format is ADME, cell-based.
A further series concerns Hepacivirus hominis. As to the kind of experiment: (§2) Inhibition of HCV 1a NS5B delta21 RNA dependent RNA polymerase by enzymatic assay.
The nature of series [11]: Bioavailability in rat at 25 mg/kg, po. The format is ADME, organism-based. The note with it: in vivo.
Series [12] in a line: Total plasma clearance in rat at 25 mg/kg, po or 5 mg/kg, iv. The format is ADME, organism-based.
A short description of series [13]: (§3) Half life in rat at 25 mg/kg, po or 5 mg/kg, iv. Conditions: in vivo. Type of series: ADME, organism-based.
Series [14] in a line: Fraction absorption in rat at 25 mg/kg, po. The format is ADME, organism-based. The note with it: in vivo. On the set-up: dose 25 mg/kg, route oral.
Series [15] can be described thus: (§4) Volume of distribution in rat at 25 mg/kg, po or 5 mg/kg, iv. The note with it: in vivo, read-out: Vdss. The format is ADME, organism-based.
The subject of series [16] is Rattus norvegicus. Described as §3. Type of series: ADME, organism-based. Conditions: in vivo.
Series [17] concerns Rattus norvegicus. Described as §4. The format is ADME, organism-based. The note with it: in vivo.
For series [18], the system named is Rattus norvegicus. Described as §1. Type of series: ADME, organism-based. Conditions: in vivo.
Series [19] is described as follows: as §2. On the set-up: species or system Hepacivirus hominis.

The structures appear in SMILES notation. Calls of active or inactive are those of the source. The calls are words filed in the database; no cut-off is given here.

In turn, `COc1ccc(CCC2(C3CCCC3)CC(O)=C(Cc3nc4nc(C)cc(C)n4n3)C(=O)O2)cc1C` (stereo not given) had a CC50 in series [1] (Huh7 cells) of over 32 µM. Also, in the series with Hepatitis C virus (Hepatitis C virus, Huh-7), it took 1200 nM to reach a half-maximal effect (EC50). Moreover, in [2], the midpoint of inhibition, the IC50, lay at 54 nM.
In the case of `Cc1cc(SC2=C(O)OC(CCc3ccc(O)cc3)(C3CCCC3)CC2=O)c(C(C)(C)C)cc1N` (stereo not given), the IC50 in [2] is 930 nM.
In [1] (huh-7), `Cc1cc(C)n2nc(CC3=C(O)CC(CCc4ccc(C(C)(C)C#N)c(F)c4)(C4CCCC4)OC3=O)nc2n1` (stereo in doubt; 22) came in with a CC50 of over 32 µM. The molecule further showed an EC50 in the series with Hepatitis C virus (huh-7) of 30 nM. Further, the IC50 in series [2] was determined as 3 nM.
Take `COc1ccc(CCC2(C3CCCC3)CC(O)=C(Cc3nc4nc(C)cc(C)n4n3)C(=O)O2)cc1Cl` (stereo not given): in series [3], the Papp A→B came to 10 ×10⁻⁶ cm/s. The Ratio in [4] turned out to be 17. The Vd in series [5] was 0.3 L/kg. The molecule further came in with a clearance in [6] of 8.3 mL/min/kg. Further, the bioavailability in [7] was 42%. The same molecule came in with a Fa in series [8] of 48%. The molecule further gave a half-life in series [9] of 30 min. This molecule also came in with a CC50 in [1] (Huh7 cells) of over 32 µM. Further, in the series with Hepatitis C virus (Hepatitis C virus, Huh-7), it took 330 nM to reach a half-maximal effect (EC50). The molecule further showed an IC50 in series [2] of 20 nM. The molecule also yielded an apparent permeability from basolateral to apical (Papp B→A) in series [10] of 6.8 ×10⁻⁶ cm/s.
For the molecule `Cc1cc(C)n2nc(CC3=C(O)CC(CCc4ccc(C(C)(C)C#N)c(F)c4)(C4CCCC4)OC3=O)nc2n1` (single isomer, unassigned; enantiomer 2) [listing 1 of 2 here], the result with Hepacivirus hominis was inactive.
As to `COc1ccc(CCC2(C3CCCC3)CC(O)=C(Sc3nc4nc(C)cc(C)n4n3)C(=O)O2)cc1Cl` (stereo not given), in series [3], the apparent permeability from apical to basolateral (Papp A→B) stood at 3 ×10⁻⁶ cm/s. For the same molecule, the Ratio in series [4] is 90. The same molecule displayed a bioavailability in [11] of 2%. In series [1] (Huh7 cells), this molecule had a CC50 of over 100 µM. The same molecule showed an EC50 with Hepatitis C virus (Hepatitis C virus, Huh-7) of 3250 nM. This molecule also registered a clearance in series [12] of 14.8 mL/min/kg. For the same molecule, in [13], the half-life was 90 min. For the same molecule, in [14], the Fa is 2.5%. The molecule further came in with an IC50 in series [2] of 36 nM. Moreover, in series [15], the Vd is 2 L/kg. This molecule also yielded a basolateral-to-apical permeability (Papp B→A) in [10] of 2.3 ×10⁻⁶ cm/s.
`COc1ccc(CCC2(C3CCCC3)CC(O)=C(Cc3nc4nc(C)cc(C)n4n3)C(=O)O2)cc1F` (stereo not given) returned a 50% cytotoxic concentration (CC50) in [1] (Huh7 cells) of over 32 µM. This molecule also yielded a 50% effective concentration (EC50) with Hepatitis C virus (Hepatitis C virus, Huh-7) of 400 nM. The molecule also registered an IC50 in [2] of 15 nM.
In turn, `CCOc1ccc(CCC2(C3CCCC3)CC(O)=C(Cc3nc4nc(C)cc(C)n4n3)C(=O)O2)cc1Cl` (stereo not given) gave a half-maximal cytotoxic concentration (CC50) in [1] (Huh7 cells) of over 32 µM. In the series on Hepatitis C virus (Hepatitis C virus, Huh-7), this molecule registered an EC50 of 320 nM. Further, in [2], the midpoint of inhibition, the IC50, lay at 4 nM.
Consider `Cc1cc(C)n2nc(CC3=C(O)CC(CCc4ccc(C(C)(C)C#N)c(F)c4)(C4CCCC4)OC3=O)nc2n1` (single isomer, unassigned; enantiomer 2) [listing 2 of 2 here], for which the bioavailability in [7] turned out to be 37%. Also, the 50% effective concentration (EC50) in the series on Hepatitis C virus (huh-7) stood at 32 nM. In addition, in the series with Rattus norvegicus [16], the t1/2 was found to be 28.2 min. Further, half-maximal inhibition in series [2] (IC50) was put at 1 nM. In the series on Rattus norvegicus [17], this molecule returned a Vdss of 0.17 L/kg.
In series [1] (Huh7 cells), `Cc1cc(C)n2nc(CC3=C(O)CC(CCc4ccc(C(C)(C)C#N)c(Cl)c4)(C4CCCC4)OC3=O)nc2n1` (stereo not given) showed a half-maximal cytotoxic concentration (CC50) of over 32 µM. The same molecule returned an IC50 in [2] of 2 nM.
In the series with Rattus norvegicus [18], `Cc1cc(C)n2nc(CC3=C(O)CC(CCc4ccc(C(C)(C)C#N)c(F)c4)(C4CCCC4)OC3=O)nc2n1` (single isomer, unassigned; enantiomer 1) returned an F of 31%. The molecule further had a CC50 in series [1] (huh-7) of 320 µM. In [12], this molecule displayed a clearance of 3.7 mL/min/kg. The molecule also gave a half-life in series [13] of 52.8 min. In addition, the concentration for half-maximal inhibition (IC50) in [19] was found to be 70 nM. Further, the Vd in series [15] was 0.3 L/kg.
`Cc1cc(C)n2nc(CC3=C(O)CC(CCc4ccc(C(C)(C)NS(C)(=O)=O)c(F)c4)(C4CCCC4)OC3=O)nc2n1` (stereo not given) yielded a 50% cytotoxic concentration (CC50) in series [1] (Huh7 cells) of over 32 µM. The same molecule returned an EC50 with Hepatitis C virus (Hepatitis C virus, Huh-7) of 110 nM. In [2], this molecule had an IC50 of 17 nM.
`Cc1cc(C)n2nc(CC3=C(O)CC(CCc4ccc(S(C)(=O)=O)c(Cl)c4)(C4CCCC4)OC3=O)nc2n1` (stereo not given) returned a cytotoxic concentration (CC50) in series [1] (Huh7 cells) of over 32 µM. The 50% effective concentration (EC50) with Hepatitis C virus (Hepatitis C virus, Huh-7) is 610 nM. In series [2], this molecule had a 50% inhibitory concentration (IC50) of 60 nM.
